Patent publication US20060189645A1, “Novel 6-phenylphenantridines” (Altana Pharma AG, priority 2003, published 2006)

System: not given
Test: not given
Conditions: not given

Work on `COc1cc2c(cc1OC)[C@H]1CCCC[C@H]1N=C2c1ccc(C(C)=NNC(=O)c2cccnc2)cc1` [Compound 1, Nicotinic acid {1-[4-((4aR,10bR)-8,9-dimethoxy-1,2,3,4,4a,10b-hexahydro-phenanthridin-6-yl)-phenyl]-ethylidene}-hydrazide] yielded a melting point of 162 °C.

System: PDE4
Test: Inhibition of PDE4 activity ([3H]cAMP hydrolysis, cytosol from human neutrophils)
Type: biochemical
Conditions: 0.5 μM cAMP, Motapizone 1 μM to suppress PDE3, 15 min at 37° C.
Procedure: Method for Measuring Inhibition of PDE4 Activity
PDE4 activity was determined as described by Thompson et al. (Adv Cycl Nucl Res 10: 69-92, 1979) with some modifications (Bauer and Schwabe, Naunyn-Schmiedeberg's Arch Pharmacol 311: 193-198, 1980). At a final assay volume of 200 μl (96 well microtiter plates) the assay mixture contained 20 mM Tris (pH 7.4), 5 mM MgCl2, 0.5 μM cAMP, [^3H]cAMP (about 30,000 cpm/assay), the test compound and an aliquot of cytosol from human neutrophils which mainly contains PDE4 activity as described by Schudt et al. (Naunyn-Schmiedeberg's Arch Pharmacol 344: 682-690, 1991); the PDE3-specific inhibitor Motapizone (1 μM) was included to suppress PDE3 activity originating from contaminating platelets. Serial dilutions of the compounds were prepared in DMSO and further diluted 1:100 (v/v) in the assays to obtain the desired final concentrations of the inhibitors at a DMSO concentration of 1% (v/v) which by itself only slightly affected PDE4 activity.
After preincubation for 5 min at 37° C., the reaction was started by the addition of substrate (cAMP) and the assays were incubated for further 15 min at 37° C. 50 μl of 0.2 N HCl was added to stop the reaction and the assays were left on ice for about 10 min. Following incubation with 25 μg 5′-nucleotidase (Crotalus atrox snake venom) for 10 min at 37° C., the assays were loaded on QAE Sephadex A-25 (1 ml bed volume). The columns were eluted with 2 ml of 30 mM ammonium formiate (pH 6.0) and the eluate was counted for radioactivity. Results were corrected for blank values (measured in the presence of denatured protein) which were below 5% of total radioactivity. […] The IC50-values for the compounds according to the invention for the inhibition of the PDE4 activity were determined from the concentration-inhibition curves by nonlinear-regression.

Going from `COc1cc2c(cc1OC)[C@H]1CCCC[C@H]1N=C2c1ccc(C(C)=NNC(N)=O)cc1` [Compound 6, 1-[4-((4aR,10bR)-8,9-Dimethoxy-1,2,3,4,4a,10b-hexahydro-phenanthridin-6-yl)-phenyl]-ethanone-semicarbazone] to `COc1cc2c(cc1OC)[C@H]1CCCC[C@H]1N=C2c1ccc(C(C)=NNC(C)=O)cc1` [Compound 4, Acetic acid {1-[4-((4aR,10bR)-8,9-dimethoxy-1,2,3,4,4a,10b-hexahydro-phenanthridin-6-yl)-phenyl]-ethylidene}-hydrazide], the “Inhibition of the PDE4 activity, −log IC50” value (shortened to “Inhibition … −log IC50”) rises from 8.64 to 8.95.

`COc1cc2c(cc1OC)[C@H]1CCCC[C@H]1N=C2c1ccc(C(C)=NNC(=O)c2cccnc2)cc1` [Compound 1, Nicotinic acid {1-[4-((4aR,10bR)-8,9-dimethoxy-1,2,3,4,4a,10b-hexahydro-phenanthridin-6-yl)-phenyl]-ethylidene}-hydrazide] and `COc1cc2c(cc1OC)[C@H]1CCCC[C@H]1N=C2c1ccc(C(C)=NNC(=O)c2ccncc2)cc1` [Compound 3, Isonicotinic acid {1-[4-((4aR,10bR)-8,9-dimethoxy-1,2,3,4,4a,10b-hexahydro-phenanthridin-6-yl)-phenyl]-ethylidene}-hydrazide] are within 0.2 log units of each other in “Inhibition … −log IC50” value: 8.62 for the first, 8.71 for the second.

First: COc1cc2c(cc1OC)[C@H]1CCCC[C@H]1N=C2c1ccc(C(=NNC(N)=O)c2ccccc2)cc1 [Compound 7, 1-[4-((4aR,10bR)-8,9-Dimethoxy-1,2,3,4,4a,10b-hexahydro-phenanthridin-6-yl)-phenyl]-1-phenyl-methanone-semicarbazone]
Second: COc1cc2c(cc1OC)C1CCCCC1N=C2c1cccc(C(C)=NNC(N)=O)c1 (centres unmarked) [Compound 37, 1-[3-((4aR10bR)-8,9-Dimethoxy-1,2,3,4,4a,10b-hexahydro-phenanthridin-6-yl)-phenyl]-ethanone-semicarbazone]
The “Inhibition … −log IC50” value of the first is higher: 9.38 for the first, 8.75 for the second.

For `COc1cc2c(cc1OC)[C@H]1CCCC[C@H]1N=C2c1ccc(C(C)=NNC(=O)CC#N)cc1` [Compound 2, Cyano-acetic acid {1-[4-((4aR,10bR)-8,9-dimethoxy-1,2,3,4,4a,10b-hexahydro-phenanthridin-6-yl)-phenyl]-ethylidene}-hydrazide], the “Inhibition … −log IC50” value was 8.61.
